According to patent publication US10987349B2, “Antitumor agent and bromodomain inhibitor” (FUJIFILM Corporation, priority 2016, dated 2021):

Key:
BRD3 BD1 = target: T1, BRD3 BD1 (Homo sapiens, UniProt Q15059); assay: Binding assay, BRD3 BD1 to acetylated histone H4 Peptide-Biotin (EPIgeneous Binding Domain Kit A); settings: for inhibition at 0.3 µM: test compound at 300 nmol/L, read-out: Binding inhibition percentage BRD3 BD1
T1 construct: BRD2 BD1, BRD3 BD1 and BRD4 BD1 (Cisbio); purchased Cisbio
Procedure, shortened: (§1)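 HTRF competition: bromodomain protein (added at 20 nmol/L) and biotinylated tetra-acetyl H4(1-25) peptide (added at 25 nmol/L) were incubated with compound, streptavidin-d2 and anti-GST Eu cryptate for 20 h at room temperature. Inhibition came from the 665/620 nm ratio relative to DMSO; IC50 by four-parameter fit; some compounds were tested only at 300 nmol/L final.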

[1] = test system: human acute myeloid leukemia cell line MV4-11; assay: Cell growth test (Cell Titer Glo) MV4-11; format: cell-based; settings: 3 to 5 days
Excerpt: (§2) The human undifferentiated thymoma cell line Ty-82 (JCRB), the human acute myeloid leukemia cell lines MV4-11 (ATCC), MOLM-13 (ATCC) and RS4-11 (ATCC), the human lymphoma cell line Raji (JCRB), the human cervical epidermoid carcinoma cell line Hela (JCRB), the human lung adenocarcinoma cell line A549 (ATCC), the human colon cancer cell lines DLD1 (DS Pharma) and HCT116 (DS Pharma), and the human pancreatic cancer cell line MIAPACA-2 (ATCC) were used to carry out a cell growth test.
(§3) Ty-82, MV4-11, MOLM-13, RS4-11, Raji and DLD1 were each seeded in a well plate, in which Roswell Park Memorial Institute (RPMI)-1640 medium supplemented with penicillin/streptomycin and fetal bovine serum (FBS) with a final concentration of 10% was placed. Hela was seeded in Dulbecco's Modified Eagle's medium (DMEM) supplemented with penicillin/streptomycin and FBS with a final concentration of 10%. A549 and MIAPACA-2 were each seeded in a well plate, in which Minimum Essential Medium (MEM) supplemented with penicillin/streptomycin and FBS with a final concentration of 10% was placed. HCT116 was seeded in a well plate, in which McCoy's 5A medium supplemented with penicillin/streptomycin and FBS with a final concentration of 10% was placed.
(§4) Thereafter, a medium containing a test compound serially diluted with DMSO, or DMSO, was added to each well of the plate, in which the cells had been seeded, and the obtained mixture was then cultured under conditions of 37° C. and 5% CO2 for 3 to 5 days. Cell Titer Glo reaction solution (Promega) was added to the culture, and the amount of luminescence was then measured using Envision plate reader (PerkinElmer). Since the amount of luminescence is in proportion to the concentration of adenosine triphosphate (ATP) in cells, the amount of luminescence was used as an indicator of the number of living cells. The growth inhibition percentage of the test compound in each concentration was calculated according to the following equation. Growth inhibition percentage (%)=(amount of luminescence in test compound−added well)/(amount of luminescence in DMSO−added well)×100
The growth inhibition percentage of the test compound in each concentration was plotted by performing a non-linear regression analysis [(log (inhibitor) vs. response—Variable slope (four parameters)], using Graphpad prism 5, and a 50% growth inhibitory concentration [GI50 (nmol/L)] was then calculated.

BRD2 BD2 = target: T2, BRD2 BD2 (Homo sapiens, UniProt P25440); assay: Binding assay, BRD2 BD2 to acetylated histone H4 Peptide-Biotin (EPIgeneous Binding Domain Kit B); settings: for inhibition at 0.3 µM: test compound at 300 nmol/L, read-out: Binding inhibition percentage BRD2 BD2
T2 construct: BRD2 BD2, BRD3 BD2 and BRD4 BD2 (Cisbio); purchased Cisbio
Procedure, shortened: (§5)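 HTRF binding of GST-tagged BD2 (20 nmol/L working stock) to biotinylated acetyl-histone H4 peptide (250 nmol/L working stock), using streptavidin-XL665 and anti-GST Eu cryptate. Incubated 20 h at room temperature; 665/620 nm ratio versus DMSO gives % inhibition; IC50 by four-parameter fit, or % inhibition at 300 nmol/L.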

BRD4 BD1 = target: T3, BRD4 BD1 (Homo sapiens, UniProt O60885); assay: Binding assay, BRD4 BD1 to acetylated histone H4 Peptide-Biotin (EPIgeneous Binding Domain Kit A); settings: for inhibition at 0.3 µM: test compound at 300 nmol/L, read-out: Binding inhibition percentage BRD4 BD1
T3 construct: BRD2 BD1, BRD3 BD1 and BRD4 BD1 (Cisbio); purchased Cisbio
Procedure, shortened: as §1

BRD4 BD2 = target: T4, BRD4 BD2 (Homo sapiens, UniProt O60885); assay: Binding assay, BRD4 BD2 to acetylated histone H4 Peptide-Biotin (EPIgeneous Binding Domain Kit B); settings: for inhibition at 0.3 µM: test compound at 300 nmol/L, read-out: Binding inhibition percentage BRD4 BD2
T4 construct: BRD2 BD2, BRD3 BD2 and BRD4 BD2 (Cisbio); purchased Cisbio
Procedure, shortened: as §5

[2] = test system: human colon cancer cell line DLD1; assay: Cell growth test (Cell Titer Glo) DLD1; format: cell-based; settings: DLD-1, 3 to 5 days
Excerpt: as §2
as §3, with “HCT116 was seeded in a well plate, in which McCoy's 5A medium supplemented with penicillin/streptomycin and FBS with a final concentration of 10% was placed.” left out
as §4, with “well)×100 […]” for “well)×100”

T2 sequence (P25440 344-453 limits assumed): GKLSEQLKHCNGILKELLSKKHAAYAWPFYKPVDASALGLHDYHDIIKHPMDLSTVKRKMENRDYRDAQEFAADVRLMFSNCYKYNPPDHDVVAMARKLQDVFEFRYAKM
T1 sequence (Q15059 34-140 limits assumed): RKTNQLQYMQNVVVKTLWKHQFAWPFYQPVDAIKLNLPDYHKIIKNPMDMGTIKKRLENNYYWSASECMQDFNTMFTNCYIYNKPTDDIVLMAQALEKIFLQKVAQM

| SMILES | IC50 (BRD3 BD1) | inhibition at 0.3 µM (BRD3 BD1) | GI50 [1] | IC50 (BRD2 BD2) | inhibition at 0.3 µM (BRD2 BD2) | IC50 (BRD4 BD1) | inhibition at 0.3 µM (BRD4 BD1) | IC50 (BRD4 BD2) | inhibition at 0.3 µM (BRD4 BD2) | GI50 [2] |
| --- | --- | --- | --- | --- | --- | --- | --- | --- | --- | --- |
| CCn1c(=O)cc(C2CCN(C)CC2)c2cc(C(=O)N(C)c3ccc(C)cc3)ccc21 [Example 14, 1-Ethyl-N-methyl-N-(4-methylphenyl)-4-(1-methylpiperidin-4-yl)-2-oxo-1,2-dihydroquinoline-6-carboxamide] | 4 nM | 94% | 16 nM | 94 nM | 74% | 5 nM | 93% | 27 nM | 82% | 361 nM |
| CCn1c(=O)cc(C2CCN(C)CC2)c2cc(C(=O)N(C)c3ccc4c(c3)CCC4)ccc21 [Example 17, N-(2,3-dihydro-1H-inden-5-yl)-1-ethyl-N-methyl-4-(1-methylpiperidin-4-yl)-2-oxo-1,2-dihydroquinoline-6-carboxamide] | 3 nM | 94% | 8 nM | 33 nM | 85% | 3 nM | 94% | 10 nM | 88% | 165 nM |
| CCn1c(=O)cc(N2CCOCC2)c2cc(-n3c(-c4ccc(Cl)cc4)c[nH]c3=O)ccc21 [Example 245, 6-(5-(4-chlorophenyl)-2-oxo-2,3-dihydro-1H-imidazol-1-yl)-1-ethyl-4-(morpholin-4-yl)quinolin-2(1H)-one] | 37 nM | 90% | 15 nM | 7 nM | 89% | 20 nM | 91% | 3 nM | 88% | 1340 nM |
